In patent publication US7576057B2, “Cyclic peptides” (Scynexis, Inc., priority 2006, dated 2009):

Columns and labels:
[1] = system: human T-lymphoblastoid cell line, CEM-SS; assay: Compound toxicity (MTS) in CEM-SS cells; assay type: cell-based
Procedure: Certain compounds of the present invention were also tested for antiretroviral activity against human immunodeficiency virus-1 (HIV) using infection of the human T-lymphoblastoid cell line, CEM-SS, with the HIV strain […] (Weislow et al., 1989, J. Natl. Cancer Inst. 81:577-586). In this MTS cytoprotection assay, each experiment included cell control wells (cells only), virus control wells (cells plus virus), drug toxicity wells (cells plus drug only), drug calorimetric control wells (drug only) as well as experimental wells (drug plus cells plus virus). Compounds were first dissolved in DMSO and tested using six half-log dilutions, starting with a high concentration of either 20 or 2 μM. HIV-1RF was added to each well in a volume of 50 μL, the amount of virus determined to give approximately 90% cell killing at 6 days post-infection. At assay termination, assay plates were stained with the soluble tetrazolium-based dye MTS (CellTiter 96 Reagent, Promega) to determine cell viability and quantify compound toxicity. MTS is metabolized by the mitochondria enzymes of metabolically active cells to yield a soluble formazan product, providing a quantitative analysis of cell viability and compound cytotoxicity. The assay was validated in parallel experiments using Zidovudine (3′-azido-3′-deoxythymidine or AZT) as a positive control. […]

[2] = system: human hepatoma cell line ET (lub ubi neo/ET); assay: Cytotoxicity (colorimetric cell number assay) in the ET line; conditions: cytotoxicity versus antiviral activity
Procedure: The compounds were dissolved in DMSO at five half-log concentrations each, ranging from either 0.03 to 3 μM or 1 to 100 μM. Subconfluent cultures of the ET line were plated out into 96 well plates dedicated for the analysis of cell numbers (cytotoxicity) or antiviral activity and the next day the compounds were added to the appropriate wells. […] Compound EC50 and EC90 values were derived from HCV RNA levels assessed as HCV RNA replicon derived LUC activity. Cytotoxicity was expressed as IC50 and IC90, the concentration of compound that inhibited cell viability by 50% and 90%, respectively. Compound IC50 and IC90 values were calculated using a colorimetric assay as an indication of cell numbers and cytotoxicity. The activity of the LUC reporter is directly proportional to HCV RNA levels in the human cell line. The HCV-replicon assay was validated in parallel experiments using interferon-alpha-2b as a positive control. Cyclosporine was also tested by way of comparison.

Compound	cytotoxicity at the concentrations that inhibit HIV [1]	safety margin (antiviral IC50 versus cytotoxicity EC50) [2]
C/C=C/C[C@@H](C)[C@@H](O)[C@H]1C(=O)N[C@@H](CC)C(=O)N(C)CC(=O)N(C)[C@@H](CC(C)C)C(=O)N[C@@H](C(C)C)C(=O)N(C)[C@@H](CC(C)C)C(=O)N[C@@H](C)C(=O)N[C@H](CCCCN(C)C)C(=O)N(C)[C@@H](CC(C)C)C(=O)N(C)[C@@H](CC(C)C)C(=O)N(C)[C@@H](C(C)C)C(=O)N1C [Compound 1, [(N,N-ε-Dimethyl)-D-lysyl]^8cyclosporine]	not cytotoxic	exhibited a safety margin
C/C=C/C[C@@H](C)[C@@H](O)[C@H]1C(=O)N[C@@H](CC)C(=O)N(C)CC(=O)N(C)[C@@H](CC(C)C)C(=O)N[C@@H](C(C)C)C(=O)N(C)[C@@H](CC(C)C)C(=O)N[C@@H](C)C(=O)N[C@H](CCCCN)C(=O)N(C)[C@@H](CC(C)C)C(=O)N(C)[C@@H](CC(C)C)C(=O)N(C)[C@@H](C(C)C)C(=O)N1C [Compound 2, [D-Lysyl]^8cyclosporine]	–	exhibited a safety margin
